Assay [1] has as its system KHOSR2 cells. Briefly: Fluorescence microscopy of cellular doxorubicin uptake. Format: cell-based, human. The conditions noted are these: 3 hr incubation. The procedure:
For cellular uptake studies, KHOS and KHOSR2 cells were seeded at densities of 5×10^5 cells/well in 6 well plates. MDR1 siRNA was applied to a well of KHOSR2 and incubated for 48 h. Following the incubation, doxorubicin was added to each well and was incubated for additional 3 hr. After incubation, the cells were washed, suspended in fresh RPMI 1640, then visualized on a Nikon Eclipse Ti-U fluorescence microscope equipped with a SPOT RT digital camera (Diagnostic Instruments, Inc., Sterling Heights, Mich.). Fluorescence intensity and cellular localization was analyzed at a wavelength of 488 nm in triplicate in random, different fields.
Cellular uptake studies were based on the fluorescence microscopic procedures of Venne et al. (Cancer Res. 56:3626-3629 (1996)). KHOS and KHOSR2 cells were seeded at densities of 5×10^5 cells/well in 6 well plates and incubated for 24 hr to allow cell attachment. […] After incubation, the cells were washed and resuspended with PBS and were then visualized on a Nikon Eclipse Ti-U fluorescence microscope (Nikon Corp.) equipped with a SPOT RT digital camera (Diagnostic Instruments, Inc., Sterling Heights, Mich.). Fluorescence intensity and cellular localization was analyzed at a wavelength of 488 nm in triplicate different fields at random.

Assay [2] relates to U-2OSR2 cells. Briefly: In vitro cytotoxicity MTT assay, U-2OSR2. Format: cell-based. The conditions noted are these: Homo sapiens. (In general: Tetrazolium assays rely on reduction of a dye to a coloured formazan, in cell work by metabolically active cells.)
In assay [3] the test system is PARP. Briefly: Cellular apoptosis assay: cleavage of PARP by Western blot. The note with it: KHOS and KHOSR2. The assay is classed as cell-based, human.
Description: Whole-cell lysates were immunoblotted with specific antibodies to PARP (Cell Signaling Technology) and its cleavage products. Positive immunoreactions were detected using Super Signal® West Pico Chemiluminescent Substrate. Bands were semiquantified by reverse image scanning densitometry with PhotoShop 7.0 (Adobe, San Jose, Calif.). An area of the gel image that was devoid of signal was assigned to be the background value. Each band of the protein representing cleaved PARP from KHOS or KHOSR2 treated with either doxorubicin, alone, or nanoparticle-loaded with doxorubicin at various concentrations, were analyzed for the density beyond background level. To ensure that the loading of the protein was equal and differences were not being observed because of one specimen having more protein than another, the band corresponding to β-actin was determined for each protein. The density of the protein band was normalized to the β-actin band for the protein and the ratio of the cleaved PARP was normalized by dividing by the ratio of the actin corresponding to each cleaved PARP.
For assay [4], the system named is U-2OS cells. Briefly: In vitro cytotoxicity MTT assay, U-2OS. The conditions noted are these: Homo sapiens, U2OS, read-out: IC50 anti-proliferative activity.
For assay [5], the system named is KHOSR2 cells. Briefly: In vitro cytotoxicity MTT assay, KHOSR2. The note with it: Homo sapiens.

We go through 1 compound from US9173840B2, “Multifunctional self-assembling polymeric nanosystems” (Northeastern University, priority 2008, dated 2015).

For orientation: IC50 means the concentration needed to halve the response being measured.

Read-outs that look alike come from different tables or passages of the source.

In the case of `COc1cccc2c1C(=O)c1c(O)c3c(c(O)c1C2=O)C[C@@](O)(C(=O)CO)C[C@@H]3O[C@H]1C[C@H](N)[C@H](O)[C@H](C)O1` [doxorubicin], in assay [1] (drug-resistant cell line, Example 2), the “subcellular distribution of doxorubicin fluorescence” value is reported as “primarily concentrated in the cytoplasm”. Besides, the “subcellular distribution of doxorubicin fluorescence, free doxorubicin” value in assay [1] (drug-resistant osteosarcoma cells) was “primarily concentrated in the cytoplasm”. In addition, the IC50 amounted to 60 nM in assay [2] (U-2OSR2, Example 1, nanoparticles loaded with 100 nM MDR1 siRNA, read-out: IC50 for doxorubicin co-treated with the MDR1 siRNA-loaded nanoparticles); 6000 nM in assay [2] (U-2OSR2, Example 1, read-out: IC50 for doxorubicin, alone); 6000 nM in assay [2] (U-2OSR2, Example 2, FIG. 17D, read-out: IC50 anti-proliferative activity); 300 nM in assay [4]; 100 nM in assay [5] (MDR1, read-out: IC50 of doxorubicin co-treated with MDR1 siRNA-loaded nanoparticles); 3000 nM in assay [5] (read-out: IC50 anti-proliferative activity). For the same compound, in assay [5] (read-out: IC50 of doxorubicin, alone), the IC50 came to 10000 nM. Moreover, the “cleavage of PARP / apoptosis induction” value in assay [3] is reported as “higher concentrations of doxorubicin, alone, induced apoptosis”.
